Measurements as given in paper PMC7615656 (European journal of pharmacology, 2010).

Key:
[1] = target: recombinant rat α3β3γ2F77I receptors (Rattus norvegicus, UniProt P18508+P20236, F115I); assay: Two-electrode voltage clamp of GABA-induced chloride currents in Xenopus oocytes; type: cell-based; conditions: for efficacy (% GABA EC3): α3β3γ2F77I, ns = not significant; for activity at 1 µM / activity at 10 µM: read-out: efficacy (% GABA EC3)
[2] = target: recombinant rat α1β3γ2F77I receptors (Rattus norvegicus, UniProt P18508+P62813, F115I); assay: as above; type: cell-based; conditions: for efficacy (% GABA EC3): α1β3γ2F77I, ns = not significant
[3] = target: recombinant rat α2β3γ2F77I receptors (Rattus norvegicus, UniProt P18508+P23576, F115I); assay: as above; type: cell-based; conditions: for efficacy (% GABA EC3): α2β3γ2F77I, ns = not significant
[4] = target: recombinant rat α1β3γ2 receptors (Rattus norvegicus, UniProt P18508+P62813); assay: as above; type: cell-based; conditions: for efficacy (% GABA EC3): α1β3γ2, ns = not significant
[5] = target: recombinant rat α5β3γ2F77I receptors (Rattus norvegicus, UniProt P18508+P19969, F115I); assay: as above; type: cell-based; conditions: for efficacy (% GABA EC3): α5β3γ2F77I, ns = not significant
[6] = target: recombinant rat α4β3γ2 receptors (Rattus norvegicus, UniProt P18508+P28471); assay: as above; type: cell-based; conditions: for efficacy (% GABA EC3): ns = not significant
[7] = tested on: GABAA receptors containing the γ2F77I mutation; assay: Modulation of GABA EC3 in receptors containing the γ2F77I mutation; type: cell-based, rat
[8] = target: recombinant rat α5β3γ2 receptors (Rattus norvegicus, UniProt P18508+P19969); assay: Two-electrode voltage clamp of GABA-induced chloride currents in Xenopus oocytes; type: cell-based; conditions: for efficacy (% GABA EC3): α5β3γ2, ns = not significant
[9] = target: recombinant rat α6β3γ2 receptors (Rattus norvegicus, UniProt P18508+P30191); assay: as above; type: cell-based; conditions: for efficacy (% GABA EC3): ns = not significant
[10] = target: recombinant rat α2β3γ2 receptors (Rattus norvegicus, UniProt P18508+P23576); assay: as above; type: cell-based
[11] = target: recombinant rat α3β3γ2 receptors (Rattus norvegicus, UniProt P18508+P20236); assay: as above; type: cell-based; conditions: for efficacy (% GABA EC3): α3β3γ2, ns = not significant
[12] = target: recombinant rat α4β3γ2F77I receptors (Rattus norvegicus, UniProt P18508+P28471, F115I); assay: as above; type: cell-based; conditions: 10 μM, ns = not significant
[13] = read-out: efficacy (% GABA EC3)
[14] = 10 nM, α2β3γ2, ns = not significant
[15] = 100 nM, α2β3γ2, ns = not significant
[16] = 1 μM, α2β3γ2, ns = not significant
[17] = 10 μM, α2β3γ2, ns = not significant

Chain of recombinant rat α6β3γ2 receptors (P30191 20-453): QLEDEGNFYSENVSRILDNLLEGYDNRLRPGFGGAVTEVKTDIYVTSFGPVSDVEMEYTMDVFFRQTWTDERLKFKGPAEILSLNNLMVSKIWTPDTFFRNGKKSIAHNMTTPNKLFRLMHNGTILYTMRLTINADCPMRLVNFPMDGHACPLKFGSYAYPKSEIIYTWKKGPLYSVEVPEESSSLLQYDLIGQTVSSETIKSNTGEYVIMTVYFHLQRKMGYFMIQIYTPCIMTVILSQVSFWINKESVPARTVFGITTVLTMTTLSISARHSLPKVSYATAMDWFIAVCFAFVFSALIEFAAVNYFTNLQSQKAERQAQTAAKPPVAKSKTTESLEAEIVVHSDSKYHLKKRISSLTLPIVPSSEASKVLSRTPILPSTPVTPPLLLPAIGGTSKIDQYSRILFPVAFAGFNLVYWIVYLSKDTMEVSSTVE
Chain of recombinant rat α6β3γ2 receptors (P63079 26-473 partner): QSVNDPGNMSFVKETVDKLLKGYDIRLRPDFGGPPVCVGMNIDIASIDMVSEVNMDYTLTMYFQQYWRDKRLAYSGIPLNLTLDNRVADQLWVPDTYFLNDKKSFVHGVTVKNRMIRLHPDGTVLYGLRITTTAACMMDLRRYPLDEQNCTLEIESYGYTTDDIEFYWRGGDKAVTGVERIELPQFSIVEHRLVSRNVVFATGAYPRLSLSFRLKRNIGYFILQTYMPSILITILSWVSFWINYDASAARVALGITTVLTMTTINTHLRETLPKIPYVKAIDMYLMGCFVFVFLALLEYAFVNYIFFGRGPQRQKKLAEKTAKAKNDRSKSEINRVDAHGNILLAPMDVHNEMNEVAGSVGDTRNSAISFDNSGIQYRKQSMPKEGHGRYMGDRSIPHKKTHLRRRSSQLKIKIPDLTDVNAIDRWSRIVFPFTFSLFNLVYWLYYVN
Chain of recombinant rat α6β3γ2 receptors (P18508 39-466): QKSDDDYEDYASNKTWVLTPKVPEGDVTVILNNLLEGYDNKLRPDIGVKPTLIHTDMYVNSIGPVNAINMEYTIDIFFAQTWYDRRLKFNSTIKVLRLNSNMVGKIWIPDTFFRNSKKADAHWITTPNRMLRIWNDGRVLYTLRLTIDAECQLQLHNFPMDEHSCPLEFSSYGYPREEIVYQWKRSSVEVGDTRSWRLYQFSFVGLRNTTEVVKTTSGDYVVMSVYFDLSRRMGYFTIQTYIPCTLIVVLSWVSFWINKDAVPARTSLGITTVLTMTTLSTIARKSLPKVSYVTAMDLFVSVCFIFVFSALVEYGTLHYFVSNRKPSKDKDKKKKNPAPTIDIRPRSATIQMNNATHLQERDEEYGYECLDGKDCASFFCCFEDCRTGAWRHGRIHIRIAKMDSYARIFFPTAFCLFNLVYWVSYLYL
Chain of recombinant rat α2β3γ2 receptors (P23576 29-451): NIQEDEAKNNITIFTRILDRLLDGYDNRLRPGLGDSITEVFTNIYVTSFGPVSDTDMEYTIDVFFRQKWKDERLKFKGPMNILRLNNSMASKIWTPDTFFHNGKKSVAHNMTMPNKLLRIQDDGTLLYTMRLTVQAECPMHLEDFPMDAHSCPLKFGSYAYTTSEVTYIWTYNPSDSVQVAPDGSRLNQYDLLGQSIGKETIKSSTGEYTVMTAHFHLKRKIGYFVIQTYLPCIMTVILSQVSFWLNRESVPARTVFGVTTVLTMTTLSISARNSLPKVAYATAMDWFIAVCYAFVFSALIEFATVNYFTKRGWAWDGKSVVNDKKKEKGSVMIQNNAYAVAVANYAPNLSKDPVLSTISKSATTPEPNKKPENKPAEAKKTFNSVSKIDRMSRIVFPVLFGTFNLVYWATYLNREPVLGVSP
Chain of recombinant rat α2β3γ2 receptors (P63079 26-473 partner): as the sequence (P63079 26-473 partner) above
Chain of recombinant rat α2β3γ2 receptors (P18508 39-466): as the sequence (P18508 39-466) above
Chain of recombinant rat α2β3γ2F77I receptors (P23576 29-451): as the sequence (P23576 29-451) above
Chain of recombinant rat α2β3γ2F77I receptors (P63079 26-473 partner): as the sequence (P63079 26-473 partner) above
Chain of recombinant rat α2β3γ2F77I receptors (P18508 39-466 F115I): as the sequence (P18508 39-466) above, with F77I counted along it

COCc1c(C(=O)OC(C)C)ncc2[nH]c3ccc(OCc4ccccc4)cc3c12 [Abecarnil, Isopropyl-6-benzyloxy-4-methoxymethyl-β-carboline-3-carboxylate]
efficacy (% GABA EC3) ([1]; 10 nM): ns
efficacy (% GABA EC3) ([1]; 100 nM): ns
activity at 1 µM [1]: 192 ± 4%
activity at 10 µM [1]: 384 ± 24%
efficacy (% GABA EC3) ([2]; 10 nM): ns
efficacy (% GABA EC3) ([2]; 100 nM): ns
activity at 1 µM [2, 13]: 179 ± 25%
activity at 10 µM [2, 13]: 279 ± 42%
efficacy (% GABA EC3) ([3]; 10 nM): ns
efficacy (% GABA EC3) ([3]; 100 nM): ns
activity at 1 µM [3, 13]: 206 ± 16%
activity at 10 µM [3, 13]: 420 ± 29%
EC50 [4]: > 9000 nM
activity at 0.01 µM [4, 13]: 192 ± 31%
activity at 0.1 µM [4, 13]: 330 ± 58%
activity at 1 µM [4, 13]: 407 ± 83%
activity at 10 µM [4, 13]: 640 ± 157%
efficacy (% GABA EC3) ([5]; 10 nM): ns
efficacy (% GABA EC3) ([5]; 100 nM): ns
activity at 1 µM [5, 13]: 177 ± 11%
activity at 10 µM [5, 13]: 283 ± 7%
efficacy (% GABA EC3) ([6]; 1 μM, α4β3γ2): ns
activity at 10 µM [6, 13]: 279 ± 81%
activity in the mutated receptors ([7]; up to 100 nM): inactive
efficacy (% GABA EC3) ([8]; 10 nM): ns
efficacy (% GABA EC3) ([8]; 100 nM): ns
activity at 1 µM [8, 13]: 169 ± 23%
activity at 10 µM [8, 13]: 232 ± 38%
efficacy (% GABA EC3) ([9]; 1 μM, α6β3γ2): ns
activity at 10 µM [9, 13]: 218 ± 13%
EC50 [10]: > 1000 nM
efficacy (% GABA EC3) [10, 14]: ns
efficacy (% GABA EC3) [10, 15]: ns
activity at 1 µM ([10]; read-out: efficacy (% GABA EC3), 1 μM, α2β3γ2, ns = not significant): 261 ± 45%
activity at 10 µM ([10]; read-out: efficacy (% GABA EC3), 10 μM, α2β3γ2, ns = not significant): 353 ± 62%
EC50 [11]: > 2000 nM
efficacy (% GABA EC3) ([11]; 10 nM): ns
activity at 0.1 µM [11, 13]: 216 ± 44%
activity at 1 µM [11, 13]: 320 ± 71%
activity at 10 µM [11, 13]: 480 ± 100%

CCc1c(C(=O)OC)ncc2[nH]c3cc(OC)c(OC)cc3c12 [DMCM, methyl-6,7-dimethoxy-4-ethyl-β-carboline-3-carboxylate]
efficacy (% GABA EC3) ([1]; 10 nM): ns
efficacy (% GABA EC3) ([1]; 100 nM): ns
efficacy (% GABA EC3) ([1]; 1 μM): 126 ± 5 % GABA EC3
efficacy (% GABA EC3) ([1]; 10 μM): 281 ± 26 % GABA EC3
efficacy (% GABA EC3) ([2]; 10 nM): ns
efficacy (% GABA EC3) ([2]; 100 nM): ns
efficacy (% GABA EC3) ([2]; 1 μM): 123 ± 3 % GABA EC3
efficacy (% GABA EC3) ([2]; 10 μM): 269 ± 3 % GABA EC3
efficacy (% GABA EC3) ([3]; 10 nM): 103 ± 1 % GABA EC3
efficacy (% GABA EC3) ([3]; 100 nM): 111 ± 2 % GABA EC3
efficacy (% GABA EC3) ([3]; 1 μM): 123 ± 1 % GABA EC3
efficacy (% GABA EC3) ([3]; 10 μM): 283 ± 17 % GABA EC3
efficacy (% GABA EC3) ([4]; 10 nM): 87 ± 8 % GABA EC3
efficacy (% GABA EC3) ([4]; 100 nM): 79 ± 11 % GABA EC3
efficacy (% GABA EC3) ([4]; 1 μM): ns
efficacy (% GABA EC3) ([4]; 10 μM): 232 ± 54 % GABA EC3
efficacy (% GABA EC3) ([5]; 10 nM): ns
efficacy (% GABA EC3) ([5]; 100 nM): ns
efficacy (% GABA EC3) ([5]; 1 μM): ns
efficacy (% GABA EC3) ([5]; 10 μM): 211 ± 40 % GABA EC3
efficacy (% GABA EC3) ([6]; 10 nM, α4β3γ2): ns
efficacy (% GABA EC3) ([6]; 100 nM, α4β3γ2): 77 ± 1 % GABA EC3
efficacy (% GABA EC3) ([6]; 1 μM, α4β3γ2): 88 ± 2 % GABA EC3
efficacy (% GABA EC3) ([6]; 10 μM, α4β3γ2): 155 ± 18 % GABA EC3
efficacy (% GABA EC3) ([8]; 10 nM): 53 ± 4 % GABA EC3
efficacy (% GABA EC3) ([8]; 100 nM): 52 ± 5 % GABA EC3
efficacy (% GABA EC3) ([8]; 1 μM): 56 ± 6 % GABA EC3
efficacy (% GABA EC3) ([8]; 10 μM): 145 ± 14 % GABA EC3
efficacy (% GABA EC3) [12]: 155 ± 9 % GABA EC3
efficacy (% GABA EC3) ([9]; 10 nM, α6β3γ2): ns
efficacy (% GABA EC3) ([9]; 100 nM, α6β3γ2): 118 ± 9 % GABA EC3
efficacy (% GABA EC3) ([9]; 1 μM, α6β3γ2): 189 ± 21 % GABA EC3
efficacy (% GABA EC3) ([9]; 10 μM, α6β3γ2): 353 ± 22 % GABA EC3
efficacy (% GABA EC3) [10, 14]: 71 ± 7 % GABA EC3
efficacy (% GABA EC3) [10, 15]: 54 ± 5 % GABA EC3
efficacy (% GABA EC3) [10, 16]: 54 ± 3 % GABA EC3
efficacy (% GABA EC3) [10, 17]: ns
efficacy (% GABA EC3) ([11]; 10 nM): 78 ± 1 % GABA EC3
efficacy (% GABA EC3) ([11]; 100 nM): 69 ± 1 % GABA EC3
efficacy (% GABA EC3) ([11]; 1 μM): 75 ± 3 % GABA EC3
efficacy (% GABA EC3) ([11]; 10 μM): 185 ± 15 % GABA EC3

CNC(=O)c1cc2c(cn1)[nH]c1ccccc12 [FG7142, N-methyl-β-carboline-3-carboxamide]
efficacy (% GABA EC3) ([1]; 100 nM): ns
activity at 1 µM [1]: 115 ± 5%
activity at 10 µM [1]: 126 ± 6%
activity at 0.1 µM [2, 13]: 107 ± 1%
activity at 1 µM [2, 13]: 111 ± 1%
activity at 10 µM [2, 13]: 124 ± 3%
efficacy (% GABA EC3) ([3]; 100 nM): ns
efficacy (% GABA EC3) ([3]; 1 μM): ns
activity at 10 µM [3, 13]: 117 ± 4%
efficacy (% GABA EC3) ([4]; 100 nM): ns
activity at 1 µM [4, 13]: 88 ± 5%
activity at 10 µM [4, 13]: 92 ± 4%
activity at 0.1 µM [5, 13]: 111 ± 2%
activity at 1 µM [5, 13]: 112 ± 4%
activity at 10 µM [5, 13]: 122 ± 4%
efficacy (% GABA EC3) ([6]; 100 nM, α4β3γ2): ns
efficacy (% GABA EC3) ([6]; 1 μM, α4β3γ2): ns
efficacy (% GABA EC3) ([6]; 10 μM, α4β3γ2): ns
maximal effect on GABA-induced chloride flux (GABA EC3), % of control current ([6]; α4β3γ2, control current = 100%): did not significantly influence
maximum stimulation of the GABA-induced current ([7]; GABAA receptors containing the γ2F77I mutation): 126 ± 6%
efficacy (% GABA EC3) ([8]; 100 nM): ns
efficacy (% GABA EC3) ([8]; 1 μM): ns
activity at 10 µM [8, 13]: 84 ± 5%
efficacy (% GABA EC3) ([9]; 100 nM, α6β3γ2): ns
efficacy (% GABA EC3) ([9]; 1 μM, α6β3γ2): ns
efficacy (% GABA EC3) ([9]; 10 μM, α6β3γ2): ns
maximal effect on GABA-induced chloride flux (GABA EC3), % of control current ([9]; α6β3γ2, control current = 100%): did not significantly influence
efficacy (% GABA EC3) [10, 15]: ns
efficacy (% GABA EC3) [10, 16]: ns
efficacy (% GABA EC3) [10, 17]: ns
maximal effect on GABA-induced chloride flux (GABA EC3), % of control current ([10]; α2β3γ2, control current = 100%): the reduction was not significant
efficacy (% GABA EC3) ([11]; 100 nM): ns
activity at 1 µM [11, 13]: 95 ± 2%
activity at 10 µM [11, 13]: 91 ± 2%
